Source: patent US20060013794A1, “Cosmetic or pharmaceutical composition comprising peptides with the sequences arggly-ser” (priority 2002, published 2006)
Where a SMILES comes first, the peptide text is derived from it.

System: HaCat human keratinocytes
Experiment: Cell differentiation, immunofluorescence with anti-ERG 1-2 antibodies
Type: cell-based
Conditions: at 24 hours

- quantity of ERG molecules present in the cells (fluorescence intensity, cell differentiation marker): increases
Structure (SMILES): N=C(N)NCCC[C@H](N)C(=O)NCC(=O)N[C@@H](CO)C(=O)O [Arg-Gly-Ser] (H-Arg-Gly-Ser-OH)
